Paper PMC9358669, “Native metabolomics identifies the rivulariapeptolide family of protease inhibitors” (Nature Communications, 2022)
Several values for one entry are separate records, joined by “and”; a condition that tells them apart may be missing. Equal values may be shown once. Read-outs that look alike come from different tables or passages of the source.

Experiments:
Chymotrypsin [1] = biological target: T1, Chymotrypsin (Bos taurus, UniProt P00766); test: Chymotrypsin inhibition, fluorogenic substrate assay (Suc-Ala-Ala-Pro-Phe-AMC); type: biochemical; conditions: for Mean (RFU/s): Chymotrypsin
T1 construct: purchased Sigma-Aldrich

Elastase = biological target: T2, Elastase (Sus scrofa, UniProt P00772); test: Elastase inhibition, fluorogenic substrate assay (MeOSuc-Ala-Ala-Pro-Val-AMC); type: biochemical, Sus domesticus; conditions: 40 min pre-incubation; for Mean (RFU/s): Elastase
T2 construct: purchased Sigma-Aldrich
T2 sequence (P00772 27-266): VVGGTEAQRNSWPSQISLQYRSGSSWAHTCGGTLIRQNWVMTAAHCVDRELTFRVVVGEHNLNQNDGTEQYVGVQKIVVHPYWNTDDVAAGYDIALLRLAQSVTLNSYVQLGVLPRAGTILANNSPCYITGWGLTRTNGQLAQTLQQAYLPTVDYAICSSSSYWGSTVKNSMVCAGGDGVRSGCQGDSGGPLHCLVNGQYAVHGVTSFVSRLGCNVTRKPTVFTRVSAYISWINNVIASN

Proteinase K = biological target: T3, Proteinase K (Parengyodontium album, UniProt P06873); test: Proteinase K inhibition, fluorogenic substrate assay (Suc-Ala-Ala-Pro-Phe-AMC); type: biochemical, Tritirachium album; conditions: 40 min pre-incubation; for Mean (RFU/s): Proteinase K
T3 construct: purchased Roche
T3 sequence (P06873 106-384): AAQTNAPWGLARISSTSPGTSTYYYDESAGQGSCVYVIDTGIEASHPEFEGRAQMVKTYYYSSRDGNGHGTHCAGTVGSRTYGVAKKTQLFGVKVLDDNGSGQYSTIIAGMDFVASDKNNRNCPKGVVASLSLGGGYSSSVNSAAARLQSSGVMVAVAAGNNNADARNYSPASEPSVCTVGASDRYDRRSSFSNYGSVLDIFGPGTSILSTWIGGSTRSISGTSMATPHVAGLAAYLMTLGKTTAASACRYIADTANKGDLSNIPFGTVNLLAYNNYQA

Chymotrypsin [2] = biological target: T1, Chymotrypsin; test: Native metabolomics / native MS detection of chymotrypsin-ligand complexes; type: binding; conditions: for max. Ligand-protein ratio: replicates A, B, C
Experimental: For native metabolomics experiments, the same chromatographic parameters were used and in addition, 220 µL/min (setup A) or 150 µL/min (setup B) ammonium acetate buffer was infused post-column through a make-up pump and a PEEKT-splitter and enzyme solution was infused with 2 µL/min flow rate via the integrated syringe pump. ESI settings were set to 40 arb. units sheath gas flow, the auxiliary gas flow was set to 10 arb. units and sweep gas flow was set to 0 arb. units. The auxiliary gas temperature was set to 150 °C. The spray voltage was set to 3 kV and the inlet capillary was heated to 253 °C. S-lens level was set to 30 V applied. MS scan range was set to 2000-4000 m/z (setup A) and 2500–4000 m/z (setup B) with a resolution Rm/z 200 140,000 (setup A) and 120,000 (setup B) with 2 microscans. MS acquisition was performed in all-ion fragmentation (AIF) mode with Rm/z 200 with 20% HCD collision energy and an isolation window of 2000 –4000 m/z (setup A) or 2500–4000 m/z (setup B).
For native LC-MS data, multiple charged spectra were deconvoluted using the Xtract algorithm in Qualbrowser, part of the Xcalibur software (Thermo Scientific) and also using FLASHDeconv (version 2.0Beta) {Jeong, K. et al. FLASHDeconv: Ultrafast, High-Quality Feature Deconvolution for Top- Down Proteomics. Cell Syst 10, 213-218 e216 (2020).}. For Xtract algorithm, both deconvoluted native LC-MS and metabolomics LC-MS/MS.raw files were converted to the centroid.mzML file format using MSconvert of the proteowizard software package. For FLASHDeconv, the raw files were converted into centroid m/zML again using MSconvert software first. Then the converted mzML files were deconvolved to generate deconvolved.mzML format files. Feature finding of both file types was performed using a modified version of MZmine2.37 (corr.17.7). Feature tables from both intact protein mass and metabolomics data were matched by their retention time (RT) and an m/z offset corresponding to the mass of chymotrypsin (25234 Da) with an RT tolerance of 0.2 min and a mass tolerance of 4 Da.
To optimize ESI setting as well as the influence of NH4Acetate concentration and pH, we used molassamide as a test compound. For optimization of ESI settings, we performed flow injections without a column and ramped ESI aux gas temperature, in-source CID energy, S-lense RF voltage. Optimization of pH values over the entire LC gradient and peak intensities were both assessed using three different make-up buffers. Make-up buffer 1 was water, make-up buffer 2 was 10 mM NH4Acetate buffer, and make-up buffer 3 was 10 mM NH4Acetate buffer + 0.2% ammonium hydroxide, v/v. Effects of NH4Acetate concentration was assessed with an online mixed make-up flow (using Experimental Setup B) with the low-pressure gradient pump. As solvent A we used LC-MS grade water and 100 mM NH4Acetate as solvent B. Molassamide was prepared as 100 µM solutions from a 10 mM stock solution in DMSO by preparing a 1:100 dilution into solvent mixture 1 (water + 10% acetonitrile + 0.1% formic acid). Samples were analyzed as described in micro-flow LC-MS/MS data acquisition (setup A); 2 µL of each solution were injected into the mass spectrometer, while chymotrypsin (Sigma), dissolved in water to a final concentration of 2 mg/mL, was injected through the syringe pump at a flow rate of 2 µL/min. pH values were assessed by disconnecting the flow to the source and collecting ~30 µL of solvent every minute, then testing this value on pH paper.
Molassamide was prepared as 100 µM solutions from a 10 mM stock solution in DMSO by preparing a 1:100 dilution into solvent mixture 1 (water + 10% acetonitrile + 0.1% formic acid). From this 100 µM solution, dilutions were prepared at 10, 1, and 0.1 µM into solvent mixture 1. 2 µL of each solution were injected into the mass spectrometer. […]

Chymotrypsin [3] = system: Chymotrypsin; design: method as in earlier work; conditions: Supplementary Table 5, Top 50 chymotrypsin inhibitors among Ahp-cyclodepsipeptides; cited from earlier work
[4] = inhibitor concentration 0.0508053 nM
[5] = inhibitor concentration 0.152416 nM
[6] = inhibitor concentration 0.457247 nM
[7] = inhibitor concentration 1.37174 nM
[8] = inhibitor concentration 4.11523 nM
[9] = inhibitor concentration 12.3457 nM
[10] = inhibitor concentration 37.037 nM
[11] = inhibitor concentration 111.111 nM
[12] = inhibitor concentration 333.333 nM
[13] = inhibitor concentration 1000 nM
[14] = inhibitor concentration 3000 nM

Compound: C/C=C1\NC(=O)[C@@H](NC(=O)[C@@H](NC(=O)[C@H](C)NC(=O)CCC)[C@@H](C)O)[C@@H](C)OC(=O)[C@H](C(C)C)NC(=O)[C@H](Cc2ccc(O)cc2)N(C)C(=O)[C@H](Cc2ccccc2)N2C(=O)[C@H](CC[C@H]2O)NC1=O [Molassamide, molassamide]
- IC50 (Chymotrypsin [1]; 40 min pre-incubation, mean, n = 3, read-out: IC50 Chymotrypsin): 863 nM
- Mean (RFU/s) (Chymotrypsin [1]; inhibitor concentration 0.0508053 nM, 40 min pre-incubation): 5.082 RFU/s
- Mean (RFU/s) (Chymotrypsin [1]; inhibitor concentration 0.152416 nM, 40 min pre-incubation): 5.023 RFU/s
- Mean (RFU/s) (Chymotrypsin [1]; inhibitor concentration 0.457247 nM, 40 min pre-incubation): 5.172 RFU/s
- Mean (RFU/s) (Chymotrypsin [1]; inhibitor concentration 1.37174 nM, 40 min pre-incubation): 5.411 RFU/s
- Mean (RFU/s) (Chymotrypsin [1]; inhibitor concentration 4.11523 nM, 40 min pre-incubation): 5.346 RFU/s
- Mean (RFU/s) (Chymotrypsin [1]; inhibitor concentration 12.3457 nM, 40 min pre-incubation): 5.257 RFU/s
- Mean (RFU/s) (Chymotrypsin [1]; inhibitor concentration 37.037 nM, 40 min pre-incubation): 4.609 RFU/s
- Mean (RFU/s) (Chymotrypsin [1]; inhibitor concentration 111.111 nM, 40 min pre-incubation): 4.56 RFU/s
- Mean (RFU/s) (Chymotrypsin [1]; inhibitor concentration 333.333 nM, 40 min pre-incubation): 3.784 RFU/s
- Mean (RFU/s) (Chymotrypsin [1]; inhibitor concentration 1000 nM, 40 min pre-incubation): 2.129 RFU/s
- Mean (RFU/s) (Chymotrypsin [1]; inhibitor concentration 3000 nM, 40 min pre-incubation): 0.9597 RFU/s
- IC50 (Chymotrypsin [1]; Supplementary Table 5, compounds of this study, read-out: Chymotrypsin IC50): 862 nM
- IC50 (Elastase; mean, n = 3): 37.6 nM
- Mean (RFU/s) (Elastase; [4]): 0.8563 RFU/s
- Mean (RFU/s) (Elastase; [5]): 0.8307 RFU/s
- Mean (RFU/s) (Elastase; [6]): 0.841 RFU/s
- Mean (RFU/s) (Elastase; [7]): 0.8127 RFU/s
- Mean (RFU/s) (Elastase; [8]): 0.7663 RFU/s
- Mean (RFU/s) (Elastase; [9]): 0.6947 RFU/s
- Mean (RFU/s) (Elastase; [10]): 0.4253 RFU/s
- Mean (RFU/s) (Elastase; [11]): 0.1337 RFU/s
- Mean (RFU/s) (Elastase; [12]): 0.03867 RFU/s
- Mean (RFU/s) (Elastase; [13]): 0 RFU/s
- Mean (RFU/s) (Elastase; [14]): 0 RFU/s
- IC50 (Proteinase K; mean, n = 3): 21.6 nM
- Mean (RFU/s) (Proteinase K; [4]): 6.609 RFU/s
- Mean (RFU/s) (Proteinase K; [5]): 6.463 RFU/s
- Mean (RFU/s) (Proteinase K; [6]): 6.371 RFU/s
- Mean (RFU/s) (Proteinase K; [7]): 6.067 RFU/s
- Mean (RFU/s) (Proteinase K; [8]): 5.597 RFU/s
- Mean (RFU/s) (Proteinase K; [9]): 4.375 RFU/s
- Mean (RFU/s) (Proteinase K; [10]): 2.174 RFU/s
- Mean (RFU/s) (Proteinase K; [11]): 0.71 RFU/s
- Mean (RFU/s) (Proteinase K; [12]): 0.19 RFU/s
- Mean (RFU/s) (Proteinase K; [13]): 0.07 RFU/s
- Mean (RFU/s) (Proteinase K; [14]): 0 RFU/s
- Relative abundance Chymotrypsin-molassamide complex [%], Average (Chymotrypsin [2]; HESI Aux Gas Temperature 40 °C): 32.7%
- Relative abundance Chymotrypsin-molassamide complex [%], Average (Chymotrypsin [2]; HESI Aux Gas Temperature 70 °C): 28.3%
- Relative abundance Chymotrypsin-molassamide complex [%], Average (Chymotrypsin [2]; HESI Aux Gas Temperature 100 °C): 32.3%
- Relative abundance Chymotrypsin-molassamide complex [%], Average (Chymotrypsin [2]; HESI Aux Gas Temperature 140 °C): 39.0%
- Relative abundance Chymotrypsin-molassamide complex [%], Average (Chymotrypsin [2]; HESI Aux Gas Temperature 170 °C): 34.0%
- Relative abundance Chymotrypsin-molassamide complex [%], Average (Chymotrypsin [2]; HESI Aux Gas Temperature 200 °C): 35.3%
- Relative abundance Chymotrypsin-molassamide complex [%], Average (Chymotrypsin [2]; HESI Aux Gas Temperature 250 °C): 27.7%
- Relative abundance Chymotrypsin-molassamide complex [%], Average (Chymotrypsin [2]; HESI Aux Gas Temperature 300 °C): 28.7%
- Relative abundance Chymotrypsin-molassamide complex [%], Average (Chymotrypsin [2]; In-Source CID Energy 0 eV): 27.7%
- Relative abundance Chymotrypsin-molassamide complex [%], Average (Chymotrypsin [2]; In-Source CID Energy 10 eV): 29.3%
- Relative abundance Chymotrypsin-molassamide complex [%], Average (Chymotrypsin [2]; In-Source CID Energy 20 eV): 33.0%
- Relative abundance Chymotrypsin-molassamide complex [%], Average (Chymotrypsin [2]; In-Source CID Energy 30 eV): 32.3%
- Relative abundance Chymotrypsin-molassamide complex [%], Average (Chymotrypsin [2]; In-Source CID Energy 40 eV): 30.7%
- Relative abundance Chymotrypsin-molassamide complex [%], Average (Chymotrypsin [2]; In-Source CID Energy 60 eV): 12.3%
- Relative abundance Chymotrypsin-molassamide complex [%], Average (Chymotrypsin [2]; In-Source CID Energy 80 eV): 1.3%
- Relative abundance Chymotrypsin-molassamide complex [%], Average (Chymotrypsin [2]; S-Lense RF level 10 %): 34.3%
- Relative abundance Chymotrypsin-molassamide complex [%], Average (Chymotrypsin [2]; S-Lense RF level 30 %): 31.0%
- Relative abundance Chymotrypsin-molassamide complex [%], Average (Chymotrypsin [2]; S-Lense RF level 50 %): 30.0%
- Relative abundance Chymotrypsin-molassamide complex [%], Average (Chymotrypsin [2]; S-Lense RF level 70 %): 40.7%
- Relative abundance Chymotrypsin-molassamide complex [%], Average (Chymotrypsin [2]; S-Lense RF level 90 %): 30.7%
- max. Ligand-protein ratio (Chymotrypsin [2]; concentration 0.01 µM): 0.00
- max. Ligand-protein ratio (Chymotrypsin [2]; concentration 0.10 µM): 0.0566 and 0.0543 and 0.05
- max. Ligand-protein ratio (Chymotrypsin [2]; concentration 1.00 µM): 0.25 and 0.22 and 0.26
- max. Ligand-protein ratio (Chymotrypsin [2]; concentration 6.67 µM): 0.77 (2×) and 0.82
- max. Ligand-protein ratio (Chymotrypsin [2]; concentration 12.50 µM): 0.98 and 0.93 and 0.99
- max. Ligand-protein ratio (Chymotrypsin [2]; concentration 20.00 µM): 0.94 (2×) and 1.00
- Peak Area Protein-Ligand-Complex (Chymotrypsin [2]; concentration [µM] 0.1): 6.16E+04
- Peak Area Protein-Ligand-Complex (Chymotrypsin [2]; concentration [µM] 1): 8.18E+05
- Peak Area Protein-Ligand-Complex (Chymotrypsin [2]; concentration [µM] 10): 1.09E+07
- Peak Area Protein-Ligand-Complex (Chymotrypsin [2]; concentration [µM] 50): 4.40E+07
- Peak Area Protein-Ligand-Complex (Chymotrypsin [2]; concentration [µM] 100): 7.00E+07
- IC50 (Chymotrypsin [3]): 234 nM
